Test system: gene expression
Assay: Differential gene expression by microarray, linear multi-factor model (FIG. 3)
Type: in vivo, rats
Settings: in both males and females, relative to baseline treatment combination (males who received corn oil)
Protocol: Returning to FIG. 1, the gene expression data 14 thus acquired and, typically, background-corrected, transformed, normalized, and/or otherwise conditioned, is analyzed at step 16 without aggregating or summarizing the readings of the multiple probes from each gene, and with simultaneous assessment of the effects of all the experimental factors. For example, a linear, multi-factor model is used in one embodiment to achieve this. The linear, multi-factor model explicitly accounts for differences in expression between genes, between probes from the same gene, and between the effects of experimental factors (which in one embodiment are gender of the experimental animals, and chemical substance they have been exposed to). The effects of the experimental factors on gene expression are estimated simultaneously, rather than one-at-a-time. In this way, the analysis corresponds to the experimental design, where the factor levels are varied together and simultaneously, rather than one at a time, this enabling the assessment of possible, non-linear interactions between experimental factors. In one example, the linear model is of the form Yijnk=γn+τkn+σln+(τσ)kln+επjn+εijkln […]

## Clc1cc2c(cc1Cl)Oc1cc(Cl)c(Cl)cc1O2 [TCDD]
  differential gene expression (fold increase) of the genes denoted by reference number 40: about 40 fold
